According to publication PMC11363342 (ACS Central Science, 2024):
Entries after “also recorded” stand apart in the source; their conditions may differ.

How the values were obtained:
SARS-CoV-2 [1] = experiment: Viral load reduction assay in Calu-3 cells, infectious virus titer by plaque assay; assay type: cell-based
Protocol: Cells were pretreated with 11 and infected with SARS-CoV-2 at a multiplicity of infection (MOI) of 1. At 16 h postinfection (hpi) supernatant was harvested to quantify the infectious virus titer by plaque assay and extracellular viral RNA copies by RT-qPCR. […] This is in line with the expected mechanism of action of the compound that involves viral (structural) protein maturation, likely resulting in reduced infectivity of progeny virus. We then calculated the specific infectivity (defined as the number of infectious particles per viral RNA copy) of treated and untreated samples for the data in Figure 3A,B (Figure 3C). […] None of the treatments caused noticeable cytotoxicity in uninfected treated cells (Figure 3B). Similarly, treatment of infected Calu-3 lung epithelial cells with 11 reduced infectious progeny virus titers by ∼10-fold, while no reduction in extracellular viral RNA copies was observed (Figure S3).
Figure S2: Cytopathic effect reduction assays on Vero E6 monkey kidney cells and H1299/ACE2 human lung epithelial cells. […]
plaque assay and RT-qPCR, respectively. Uninfected compound-treated cells were assessed by MTS assay in parallel to measure cytotoxicity of the compounds. n=3 independent experiments. […]

SARS-CoV-2 [2] = assay type: cell-based
ER α-Glu II (GANAB) = experiment: Competitive activity-based protein profiling with ABP 29 in ALI-PBEC lysate, GANAB; assay type: cell-based, human
SARS-CoV-2 S protein = assay type: cell-based
GBA2 = details: cited from earlier work
SARS-CoV-2 [3] = experiment: Plaque reduction assay on H1299/ACE2 cells (time of treatment); assay type: cell-based
Protocol: To evaluate whether compound 11 has an effect on host proteins (for instance, ACE2) involved in viral entry, we treated monolayers of H1299/ACE2 cells with compound 11 either 48 or 2 h before infection, during infection (0–1 h), or starting from 1 h postinfection (hpi). The cell monolayers were infected with ∼20 PFU of SARS-CoV-2, and after 1 h the inoculum was replaced with an overlay. In one well (Post Infection) the overlay contained compound 11. Remdesivir, a viral RNA synthesis inhibitor, was added to the overlay of another well, as a positive control for blocking virus replication in the cell.
H1299/ACE2 cells were seeded in a 6-well plate at a density of 1.3 × 10^5 cells/well (20% confluency), 96 h prior to infection. […] The monolayers were infected with ∼20 PFU of SARS-CoV-2/Leiden0008. In the postinfection treatment, the compound (or RDV) was added to the Avicel overlay. Cells were incubated for 4 days at 37 °C before fixation and crystal violet staining.

GBA1 = details: cited from earlier work
SARS-CoV = assay type: cell-based; details: Vero E6, MOI 1, 16 hpi, increasing concentrations
SARS-CoV-2 [4] = experiment: Viral load reduction assay on H1299/ACE2 cells, extracellular viral RNA copies by RT-qPCR; assay type: cell-based
in vitro = details: African green monkey
MERS-CoV = assay type: cell-based; details: HuH-7, MOI 1, 16 hpi, increasing concentrations
GAA = GAA (Homo sapiens, UniProt P10253); experiment: Competitive activity-based protein profiling with ABP 29 in ALI-PBEC lysate, GAA; assay type: cell-based; details: pH 7, 48 hpi
GCS = test system: GCS; design: method as in PMID 28776021; details: cited from earlier work
HCoV-229E = assay type: cell-based
SARS-CoV-2 [5] = experiment: CPE reduction assay on H1299/ACE2 lung epithelial cells; assay type: cell-based; details: compared with Vero E6

O=S1(=O)O[C@@H]2[C@H](O)[C@@H](O)[C@H](O)[C@@H](CO)[C@@H]2O1 [Compound 11, 1,6-epi-cyclophellitol cyclosulfate]
reduction of infectious virus titers (SARS-CoV-2 [1]; Calu-3, 0.5–1.6 μM): up to 2 logs
reduction of infectious progeny virus titers (SARS-CoV-2 [1]; Calu-3, MOI 1, 16 hpi): ~10 fold
concentration at which the inhibitory effect reached a plateau (SARS-CoV-2 [2]): 1.6 µM
reduction of the infectious progeny virus titer (SARS-CoV-2 [2]): 100 fold
specific infectivity (infectious particles per viral RNA copy) (SARS-CoV-2 [2]; H1299/ACE2, 1.5 μM compound): decrease in specific infectivity
ER α-Glu II inhibition in ALI-PBEC (in words) (ER α-Glu II (GANAB); 0.5 μM): almost full inhibition
in cellulo ER α-Glu II inhibition by ABP 29 labeling (in words) (ER α-Glu II (GANAB); pH 7): most efficient in inhibiting ER α-Glu II and GAA at low concentrations
S protein in infected cells (immunofluorescence) (SARS-CoV-2 S protein): reduction in the amount of S protein
syncytium formation (SARS-CoV-2 S protein): reduced syncytium formation
inhibition of GBA2 (GBA2): completely inactive; also recorded: does not inhibit
plaque formation, pretreatment or treatment only during infection (SARS-CoV-2 [3]; H1299/ACE2, 5 μM, 48 or 2 h before or 0–1 h): had no effect on the number of plaques that developed or their morphology
plaque formation, treatment after infection (in the overlay) (SARS-CoV-2 [3]; H1299/ACE2, compound 11 at 5 μM): prevented the formation of plaques
inhibition of GBA1 (GBA1): completely inactive; also recorded: does not inhibit
infectious progeny of SARS-CoV (in words) (SARS-CoV): significant reduction of infectious progeny
extracellular viral RNA copy numbers (in words) (SARS-CoV-2 [4]): only slightly reduced
CC50 at 3 days (in vitro): > 200 µM
infectious progeny of MERS-CoV (in words) (MERS-CoV): significant reduction of infectious progeny
in cellulo GAA inhibition by ABP 29 labeling (in words) (GAA): most efficient in inhibiting ER α-Glu II and GAA at low concentrations
inhibition of GCS (GCS): does not inhibit
virus infectivity of HCoV-229E (in words) (HCoV-229E): did not show any reduction in virus infectivity
EC50 values in CPE reduction assay (in words) (SARS-CoV-2 [5]): comparable EC50 values
